Reference: patent US20260053778A1, “USE OF NOVEL PPAR ACTIVITY MODULATOR FOR PREVENTION, AMELIORATION OR TREATMENT OF DEGENERATIVE BRAIN DISEASES” (POSTECH RESEARCH AND BUSINESS DEVELOPMENT FOUNDATION, priority 2022, published 2026)

Experiments:
5×FAD mice = assay: Western blot of NLRP3, NF-κB and ASC in hippocampal tissue; format: in vivo, mouse; conditions: hippocampal brain lysate
Description: The protein levels of NLRP3, NF-κB, and ASC in the hippocampal tissues isolated from 5×FAD mice and DTMB-treated 5×FAD mice were confirmed by Western blot. Western blot analysis was performed in the same manner as in Example 2-4 using primary antibodies against NLRP3, NF-κB, and ASC (Cell Signaling Technology, Danvers, MA, USA).

[1] = system: 5×FAD Alzheimer's dementia-induced mice; assay: qPCR of proinflammatory cytokines in brain tissue; format: in vivo, mouse; conditions: 5×FAD mice
Description: The gene expression levels of proinflammatory cytokines and related enzymes (II-1B, Il-6, and iNOS) in the brain tissues of the DTMB-administered and non-administered groups of 5×FAD Alzheimer's dementia-induced mice were confirmed by qPCR.

RAW 264.7 cell line = assay: Cell viability assay (MTT), RAW 264.7; format: cell-based; conditions: RAW 264.7, 48 h, at higher concentrations
Description: Cell viability was measured by a chromogenic assay that biologically reduces 3-(4,5-dimethyl-thiazol-2-yl)-2,5-diphenyltetrazolium bromide (MTT) to formazan in living cells. Briefly, cells were cultured in 96-well plates in a final volume of 100 μL. After 24 h, the culture medium was replaced with fresh medium containing DTMB compound, and the cells were cultured for another 48 h. Next, MTT (dissolved in PBS at 5 mg/mL) was added to the culture medium. The cells were cultured in the dark at 37° C. for 1 h, and then the supernatant was removed from the wells. The formazan crystals were dissolved by adding total MTT solvent (4 mM HCl and 0.1% Nonidet P-40, both dissolved in isopropanol), and the absorbance was measured at 570 nm using a microplate reader, Infinite 200 Pro NanoQuant microplate reader (TECAN, Switzerland).

[2] = system: 5×FAD Alzheimer's dementia-induced mice; assay: Immunohistochemistry of gliosis (IBA-1, GFAP) in brain tissue; format: in vivo, mouse; conditions: cerebral cortex and hippocampus, IBA-1 and GFAP staining, 5×FAD mice, DTMB 10 mg/kg orally
Description: The degree of gliosis was confirmed through immunochemical analysis using antibodies against IBA-1, a specific protein of microglia, and GFAP, a specific protein of astrocytes. Specifically, immunohistochemistry was performed in the same manner as in Example 6-1 using anti-Iba1 antibody (Wako, Japan, 1:200) and anti-GFAP antibody (Abcam, Cambridge, UK, 1:200) as primary antibodies.

[3] = target: T1, HIS-tagged recombinant PPAR α protein (Homo sapiens, UniProt Q07869); assay: CNBr-drug and protein binding experiment, PPARα; conditions: Western blotting after 24 h incubation
T1 sequence (Q07869 239-466 limits assumed): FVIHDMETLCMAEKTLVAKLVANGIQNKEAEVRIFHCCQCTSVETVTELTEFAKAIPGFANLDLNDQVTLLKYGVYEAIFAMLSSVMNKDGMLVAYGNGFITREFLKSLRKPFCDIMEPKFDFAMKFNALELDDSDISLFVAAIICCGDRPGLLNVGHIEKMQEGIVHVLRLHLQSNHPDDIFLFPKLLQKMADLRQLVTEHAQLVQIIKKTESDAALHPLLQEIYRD
Description: Since the computer prediction program predicted that DTMB binds to PPAR transcription factors, CNBr-drug and protein binding experiments were conducted to confirm whether DTMB actually binds to PPAR. To determine the actual degree of drug-protein binding, the reaction of the protein of the PPAR-α, β/δ, γ ligand-binding portion with the DTMB drug-bound CNBr beads was confirmed through Western blotting.
Specifically, CNBr Sepharose 4B beads were prepared and activated according to the instructions. 100 mg of CNBr-activated Sepharose 4B beads were incubated with drugs or DMSO at 4° C. for 18 h. The drug-bound beads reacted with HIS-tagged recombinant PPAR α, β/δ, and γ proteins. After 24 h of incubation, Western blotting experiments were performed to confirm whether the recombinant proteins bound to the drug-bound beads.

PPARα = target: T2, PPARα (Homo sapiens, UniProt Q07869); assay: GAL4-transactivation assay in HEK293A cells, PPARα; format: cell-based; conditions: GAL4 reporter, 24 h, compared with WY14643
T2 construct: expressed in transfected cells; host or cells: HEK293A
T2 sequence (Q07869 1-468): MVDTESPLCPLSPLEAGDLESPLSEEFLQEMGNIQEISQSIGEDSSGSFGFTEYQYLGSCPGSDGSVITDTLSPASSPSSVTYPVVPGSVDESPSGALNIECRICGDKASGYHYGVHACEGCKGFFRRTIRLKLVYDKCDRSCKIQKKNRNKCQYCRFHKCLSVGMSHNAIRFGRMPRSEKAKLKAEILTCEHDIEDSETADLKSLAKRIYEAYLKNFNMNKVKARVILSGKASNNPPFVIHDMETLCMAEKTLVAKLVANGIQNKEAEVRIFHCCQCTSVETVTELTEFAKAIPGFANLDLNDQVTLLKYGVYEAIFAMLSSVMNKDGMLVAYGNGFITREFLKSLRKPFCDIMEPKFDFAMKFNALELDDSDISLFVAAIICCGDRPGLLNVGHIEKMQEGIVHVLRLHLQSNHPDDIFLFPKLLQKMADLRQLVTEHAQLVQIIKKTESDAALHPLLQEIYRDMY
Description: A GAL4-transactivation assay experiment was performed to determine whether the drug was bound to the PPAR ligand binding site. HEK293A cells were transfected with GAL4-reporter plasmid and pGL4.74 (Promega, Madison, WI, USA) as an internal standard via electroporation using the Neon Transfection System (Invitrogen, Carlsbad, CA, USA). All vectors were kindly provided by Professor Kanno Yuichiro, Toho University, Japan. After overnight culture, cells were treated with DTMB and each positive control compound for 24 h. Cells were then harvested, resuspended in luciferase lysis buffer (Promega), and incubated on ice for 10 min. Cell debris was removed by centrifugation at 20,000×g, 4° C. for 10 min, and the supernatant was used for the luciferase assay. Luciferase activity was measured using the Dual Luciferase Reporter Assay System (Promega) according to the manufacturer's instructions. In the measurement experiment, firefly luciferase activity was normalized to Renilla luciferase activity. To investigate the concentration-dependent effect of DTMB drug, EC50 values were measured by treating various concentrations of DTMB.

Binding of PPARα ligand-binding protein to drug-bound CNBr beads [3]: binds to all subtypes of PPAR
SMILES: COc1ccc(-c2cc(=O)oc3c(C)c(OC(=O)[C@H](Cc4c[nH]c5ccccc45)NC(=O)OC(C)(C)C)ccc23)cc1 [DTMB, [4-(4-Methoxyphenyl)-8-methyl-2-oxochromen-7-yl](2S)-3-(1H-indol-3-yl)-2-[(2-methylpropan-2-yl)oxycarbonylamino]propanoate]
ASC level (5×FAD mice): did not change significantly | Protein level of NF-κB (5×FAD mice): decreased | Protein level of NLRP3 (5×FAD mice): decreased | Expression level of Il-1β [1]: decreased | Expression level of Il-6 [1]: decreased | Expression level of iNOS [1]: decreased | Cytotoxicity (MTT) (RAW 264.7 cell line): no cytotoxicity | Hyperactivity of microglia and astrocytes (gliosis) [2]: significantly reduced | PPARα activation versus positive control (PPARα): activated at a lower concentration than WY14643
